Measured values: patent publication US12655101B2, “Small molecules with antibacterial activity” (NEW MEXICO TECH UNIVERSITY RESEARCH PARK CORPORATION, priority 2021, dated 2026)
In brackets after ≈: the same amount, converted by molar mass. Where two headings read alike, the source gives them in different places.

Experiments:
A. baumannii ATCC 15151 [1] = experiment: microbe, parasite or virus in culture; type: cell-based; settings: for change of MIC from Day 0 to Day 30 / development of resistance: 30 days; for MIC: Acinetobacter baumannii; for Evolution of resistance?: Table 7
Procedure: A. baumannii ATCC 15151 was grown from a glycerol stock by placing a small volume of cells onto a MHA plate. The MHA plate was incubated overnight at 37° C. A single colony was subsequently used to inoculate MHB to obtain a bacterial broth suspension. The MHB broth suspension was grown at 37° C. on a rotary shaking incubator (100 rpm) for 12 hours. The bacterial cell concentration was adjusted to ˜5×10^5 CFU/mL in MHB or MHB using OD at 595 nm. […] (PAO) and the negative control was non-treated cells. All treatments were performed in triplicate. The plate was incubated for 20 hours at 37° C. in a Tecan plate reader, where the cells were shaken every hour and an OD reading was taken at 600 nm. […] These cells were again plated in a 96-well plate and incubated as before. This was performed a total of 30 days.

MRSA ATCC BAA-44 = experiment: MIC on MRSA ATCC BAA-44; type: cell-based, S. aureus; settings: for MIC: Staphylococcus aureus
Procedure: MRSA BAA-44: MRSA ATCC BAA-44 was grown from a glycerol stock by placing a small volume of cells onto a Mueller-Hinton agar plate (MHA). The MHA plate was incubated overnight at 37° C. A single colony was used to inoculate Mueller-Hinton broth (MHB) to obtain a bacterial broth suspension. The MHB broth suspension was grown at 37° C. on a rotary shaking incubator (100 rpm) for 12 hours. The bacterial cell concentration was adjusted to ˜5×10^5 colony forming units per milliliter (CFU/mL) in MHB−/+10, 20, or 40% FBS using optical density (OD) at 595 nm. 500 μL aliquots of the adjusted bacterial cell suspension were placed into borosilicate glass tubes. The cell suspensions were treated with 100 μM compound of interest and serially diluted two-fold. The culture tubes were incubated for 18 hours at 37° C. Efficacy was either assessed visually or by adding 10% v/v MTT (5 mg/mL stock) after the 18 hour incubation period, where the cell suspensions were subsequently incubated for 10 minutes to allow the MTT reagent to carry out the colorimetric reaction.

E. coli pNMT41 = experiment: 6-chloro-4-methyl-umbelliferyl-β-D-glucuronide assay for beta-glucuronidase (inner membrane disruption); type: cell-based; settings: 10 μg/mL PME
Procedure: E. coli pNMT 41 was grown from a glycerol stock by placing a small volume of cells onto a MHA plate. The MHA plate was incubated overnight at 37° C. A single colony was subsequently used to inoculate MHB+100 μg/mL ampicillin to obtain a bacterial broth suspension. The MHB broth suspension was grown at 37° C. on a rotary shaking incubator (100 rpm) for 12 hours. The bacterial cell concentration was adjusted to ˜1×10^7 CFU/mL in MHB using OD at 595 nm. The cells were washed 3× by spinning by centrifuge and washing with 500 μL medium 200. The cells were resuspended in 7 mL medium 200. The cells were treated with 10 μM melittin, 6, 12, 24, and 100 μM Compound 25, and 10 μg/mL PME. The cells were incubated at 37° C. for 30 minutes. 1 μM umbelliferyl was added, and the cells were incubated further for 10 minutes at 37° C.
The cells were then incubated at 37° C. for 45 minutes. 1 μM umbelliferyl was added, and the cells were incubated further for 10 minutes at 37° C.

A. baumannii ATCC 15151 [2] = experiment: Synergy of kanamycin and Compound 25, colony counts; type: cell-based
Procedure: Bacterial cells were prepared using methods described above. 500 μL aliquots of the adjusted bacterial cell suspensions were placed into borosilicate glass tubes, where the cell suspensions were treated with 12.5 μg/mL kanamycin, 1 μM or 2 μM Compound 25, or a combination of 12.5 μg/mL kanamycin plus 1 μM or 2 μM Compound 25. The culture tubes were incubated for 18 hours at 37° C. Colony counts were performed by 10-fold serially diluting the samples into fresh MHB and drip-streaking 10 μL from each dilution series onto MHA. The plates were incubated at 37° C. for 18 hours before the CFU/mL were determined by visual cell counts.
A. baumannii ATCC 15151 was grown from a glycerol stock by placing a small volume of cells onto a MHA plate. The MHA plate was incubated overnight at 37° C. A single colony was subsequently used to inoculate MHB to obtain a bacterial broth suspension. The MHB broth suspension was grown at 37° C. on a rotary shaking incubator (100 rpm) for 12 hours. The bacterial cell concentration was adjusted to ˜5×10^5 CFU/mL in MHB or MHB+40% FBS using OD at 595 nm. 500 μL aliquots of the adjusted bacterial cell suspensions were placed into borosilicate glass tubes. Cell suspensions were treated with 6 μg/mL or 12.5 μg/mL kanamycin, 1 μM, 2 μM, or 10 μM Compound 25, or a combination of 6 μg/mL or 12.5 μg/mL […] plus 1 μM, 2 μM, or 10 μM Compound 25. The culture tubes were incubated for 18 hours at 37° C. Colony counts were determined by 10-fold serially diluting the samples into fresh MHB and drip-streaking 10 μL from each dilution series onto MHA. The plates were incubated at 37° C. for 18 hours before the CFU/mL were determined by visual cell counts.

H. pylori Hp A-4 = experiment: Direct comparison of Compound 26 in 5% FBS on H. pylori and A. baumannii; type: cell-based
Procedure: A direct comparison of Compound 26 in 5% […] on H. pylori Hp A-4 and A. baumannii BAA-1797 was performed. The conditions were standard liquid culture conditions for each organism in 5% FBS. A lawn of H. pylori Hp A-4 on a blood agar plate was prepared. 1 μL of Compound 26 at various concentrations and 1 μL of 100% sterile DMSO were spotted on the blood agar plate. The plate was incubated for 4 days at 37° C. in 5% CO2.

[3] = ATCC15151, 0 h, read-out: Starting MIC Day 0, A. baumannii ATCC 15151, Day 0
[4] = ATCC15151, read-out: Final MIC Day 30, A. baumannii ATCC 15151, Day 30
[5] = 18 h, read-out: MIC in the presence of 40% FBS, MRSA ATCC BAA-44, 40% FBS
[6] = MRSA ATCC BAA-44, absence of serum, read-out: MIC in the absence of serum
[7] = MRSA ATCC BAA-44, serum not stated, read-out: MIC
[8] = no serum (note in the cell), read-out: MIC (μM) in MRSA BAA-44

Structure (SMILES)	change of MIC from Day 0 to Day 30 (A. baumannii ATCC 15151 [1])	development of resistance (A. baumannii ATCC 15151 [1])	MIC (A. baumannii ATCC 15151 [1]; [3])	MIC (A. baumannii ATCC 15151 [1]; [4])	Evolution of resistance? (A. baumannii ATCC 15151 [1])	MIC (MRSA ATCC BAA-44; [5])	MIC (MRSA ATCC BAA-44; [6])	MIC (MRSA ATCC BAA-44; [7])	toxicity to MRSA BAA-44 (MRSA ATCC BAA-44; absence of serum)	inner membrane disruption (GUS fluorescence) (E. coli pNMT41; separate experiment, 12.5 μM Compound 14, 45 minutes)	synergy, logs of kill (A. baumannii ATCC 15151 [2]; 12.5 μg/mL kanamycin+1 μM Compound 25, 18 hours)	synergy, full cell death (A. baumannii ATCC 15151 [2]; 12.5 μg/mL kanamycin+2 μM Compound 25, 18 hours)	synergy, logs of kill (A. baumannii ATCC 15151 [2]; 40% FBS, 12.5 μg/mL kanamycin+10 μM Compound 25)	synergy, logs of kill (A. baumannii ATCC 15151 [2]; without serum, 6 μg/mL kanamycin+2 μM Compound 25)	MIC (MRSA ATCC BAA-44; [8])	inner membrane disruption (GUS fluorescence) (E. coli pNMT41; 10 μM melittin, 6, 12, 24, 100 μM Compound 25, 30 minutes)	increase in anti-bacterial activity for H. pylori compared to A. baumannii (H. pylori Hp A-4)
Nc1cccc2[nH]cc(/C=N/Nc3ccc(Cl)cc3)c12 [Compound 14, (E)-3-((2-(4-chlorophenyl)hydrazineylidene)methyl)-1H-indol-4-amine]	8 fold	significant resistance	12.5 µM (≈ 3.56 µg/mL)	≥ 100 µM	Yes; >6-fold	100 µM	50 µM (≈ 14.2 µg/mL)	50 to 100 µM (≈ 14.2 to 28.5 µg/mL)	toxic	did not disrupt inner membrane							
Clc1ccc(N/N=C/c2c[nH]c3ccc(Br)cc23)cc1 [Compound 15, (E)-5-bromo-3-((2-(4-chlorophenyl)hydrazineylidene)methyl)-1H-indole]					Yes; >4-fold	> 100 µM	50 µM (≈ 17.4 µg/mL)										
Brc1ccc(N/N=C/c2c[nH]c3cccc(OCc4ccccc4)c23)cc1.Cl [Compound 25, (E)-2-((4-(benzyloxy)-1H-indol-3-yl)methylene)-1-(4-bromophenyl)hydrazin-1-ium chloride]		had not developed resistance	6 µM	6 µM	No			25 µM			2.5 logs of kill	9 orders of magnitude	9 logs of kill	8 logs of kill	50 µM	did not disrupt the inner membrane	
Cl.Clc1ccc(N/N=C/c2c[nH]c3cccc(OCc4ccccc4)c23)cc1 [Compound 26, (E)-2-((4-(benzyloxy)-1H-indol-3-yl)methylene)-1-(4-chlorophenyl)hydrazin-1-ium]	2 fold	slight resistance	6 µM	12 µM	Yes; 2-fold			25 µM							50 µM		16.6 fold
Cl.Fc1ccc(N/N=C/c2c[nH]c3cccc(OCc4ccccc4)c23)cc1 [Compound 27, (E)-2-((4-(benzyloxy)-1H-indol-3-yl)methylene)-1-(4-fluorophenyl)hydrazin-1-ium]					Yes; 4-fold			100 µM							100 µM		
